{"source": "ChEMBL document CHEMBL5042486", "about": "“Discovery and Preclinical Characterization of BIIB091, a Reversible, Selective BTK Inhibitor for the Treatment of Multiple Sclerosis” (J Med Chem, 2022)", "key": {"[1]": {"test": "Kinetic solubility of the compound at pH 1.5 by shake flask method", "type": "physicochemical", "settings": "buffer, read-out: Kinetic_solubility"}, "[2]": {"target": "Mitogen-activated protein kinase kinase kinase 13 (Homo sapiens, UniProt O43283)", "sequence (O43283 whole entry, the tested form may be a part)": "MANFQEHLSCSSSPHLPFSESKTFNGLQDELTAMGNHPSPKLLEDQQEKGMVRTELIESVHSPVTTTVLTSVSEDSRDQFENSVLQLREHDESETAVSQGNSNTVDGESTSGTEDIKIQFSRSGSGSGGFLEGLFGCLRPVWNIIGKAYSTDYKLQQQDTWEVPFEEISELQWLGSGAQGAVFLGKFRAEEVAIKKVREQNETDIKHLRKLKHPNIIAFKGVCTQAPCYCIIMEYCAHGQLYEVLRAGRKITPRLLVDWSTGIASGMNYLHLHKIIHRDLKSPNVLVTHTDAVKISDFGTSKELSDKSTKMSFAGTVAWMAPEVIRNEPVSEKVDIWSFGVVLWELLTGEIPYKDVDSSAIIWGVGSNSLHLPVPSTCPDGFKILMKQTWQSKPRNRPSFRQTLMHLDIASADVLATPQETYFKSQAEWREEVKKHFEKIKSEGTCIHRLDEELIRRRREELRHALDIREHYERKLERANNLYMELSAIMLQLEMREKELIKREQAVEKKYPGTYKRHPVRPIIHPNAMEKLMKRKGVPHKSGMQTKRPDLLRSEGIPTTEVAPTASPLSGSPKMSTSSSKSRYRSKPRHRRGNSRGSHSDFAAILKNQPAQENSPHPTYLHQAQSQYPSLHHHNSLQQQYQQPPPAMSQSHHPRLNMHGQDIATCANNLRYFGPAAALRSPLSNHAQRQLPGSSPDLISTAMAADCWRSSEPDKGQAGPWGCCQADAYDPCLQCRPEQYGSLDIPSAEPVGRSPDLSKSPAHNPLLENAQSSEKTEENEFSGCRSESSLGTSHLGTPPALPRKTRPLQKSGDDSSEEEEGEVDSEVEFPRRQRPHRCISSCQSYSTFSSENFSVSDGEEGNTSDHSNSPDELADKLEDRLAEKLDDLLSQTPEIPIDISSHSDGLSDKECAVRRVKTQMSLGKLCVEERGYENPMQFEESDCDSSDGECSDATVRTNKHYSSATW", "test": "Binding affinity to wild-type human full length LZK (M1 to W966 residues) expressed in mammalian expression system by Kinomescan method"}, "[3]": {"target": "Proto-oncogene tyrosine-protein kinase Src (Homo sapiens, UniProt P12931)", "sequence (P12931 2-536 limits assumed)": "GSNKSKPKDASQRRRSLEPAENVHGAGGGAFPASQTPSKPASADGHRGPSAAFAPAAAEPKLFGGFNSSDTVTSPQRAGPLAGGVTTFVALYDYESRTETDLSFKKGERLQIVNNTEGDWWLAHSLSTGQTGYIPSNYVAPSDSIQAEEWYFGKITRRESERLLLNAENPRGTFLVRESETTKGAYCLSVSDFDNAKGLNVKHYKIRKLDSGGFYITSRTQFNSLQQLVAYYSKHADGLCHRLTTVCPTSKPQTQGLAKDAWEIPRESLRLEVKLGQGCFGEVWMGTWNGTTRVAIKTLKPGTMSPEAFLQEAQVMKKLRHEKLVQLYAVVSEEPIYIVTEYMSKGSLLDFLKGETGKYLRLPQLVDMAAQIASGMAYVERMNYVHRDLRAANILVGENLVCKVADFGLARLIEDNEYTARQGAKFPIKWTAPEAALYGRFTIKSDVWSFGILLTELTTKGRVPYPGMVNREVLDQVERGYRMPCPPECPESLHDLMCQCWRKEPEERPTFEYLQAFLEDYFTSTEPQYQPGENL", "test": "Binding affinity to wild-type human partial length SRC (L240 to L536 residues) expressed in bacterial expression system by Kinomescan method"}, "[4]": {"test": "Volume of distribution at steady state in Beagle dog at 5 mg/kg, po", "type": "ADME, organism-based, Canis lupus familiaris", "settings": "in vivo"}, "[5]": {"target": "Voltage-gated inwardly rectifying potassium channel KCNH2 (Homo sapiens, UniProt Q12809)", "sequence (Q12809 whole entry)": "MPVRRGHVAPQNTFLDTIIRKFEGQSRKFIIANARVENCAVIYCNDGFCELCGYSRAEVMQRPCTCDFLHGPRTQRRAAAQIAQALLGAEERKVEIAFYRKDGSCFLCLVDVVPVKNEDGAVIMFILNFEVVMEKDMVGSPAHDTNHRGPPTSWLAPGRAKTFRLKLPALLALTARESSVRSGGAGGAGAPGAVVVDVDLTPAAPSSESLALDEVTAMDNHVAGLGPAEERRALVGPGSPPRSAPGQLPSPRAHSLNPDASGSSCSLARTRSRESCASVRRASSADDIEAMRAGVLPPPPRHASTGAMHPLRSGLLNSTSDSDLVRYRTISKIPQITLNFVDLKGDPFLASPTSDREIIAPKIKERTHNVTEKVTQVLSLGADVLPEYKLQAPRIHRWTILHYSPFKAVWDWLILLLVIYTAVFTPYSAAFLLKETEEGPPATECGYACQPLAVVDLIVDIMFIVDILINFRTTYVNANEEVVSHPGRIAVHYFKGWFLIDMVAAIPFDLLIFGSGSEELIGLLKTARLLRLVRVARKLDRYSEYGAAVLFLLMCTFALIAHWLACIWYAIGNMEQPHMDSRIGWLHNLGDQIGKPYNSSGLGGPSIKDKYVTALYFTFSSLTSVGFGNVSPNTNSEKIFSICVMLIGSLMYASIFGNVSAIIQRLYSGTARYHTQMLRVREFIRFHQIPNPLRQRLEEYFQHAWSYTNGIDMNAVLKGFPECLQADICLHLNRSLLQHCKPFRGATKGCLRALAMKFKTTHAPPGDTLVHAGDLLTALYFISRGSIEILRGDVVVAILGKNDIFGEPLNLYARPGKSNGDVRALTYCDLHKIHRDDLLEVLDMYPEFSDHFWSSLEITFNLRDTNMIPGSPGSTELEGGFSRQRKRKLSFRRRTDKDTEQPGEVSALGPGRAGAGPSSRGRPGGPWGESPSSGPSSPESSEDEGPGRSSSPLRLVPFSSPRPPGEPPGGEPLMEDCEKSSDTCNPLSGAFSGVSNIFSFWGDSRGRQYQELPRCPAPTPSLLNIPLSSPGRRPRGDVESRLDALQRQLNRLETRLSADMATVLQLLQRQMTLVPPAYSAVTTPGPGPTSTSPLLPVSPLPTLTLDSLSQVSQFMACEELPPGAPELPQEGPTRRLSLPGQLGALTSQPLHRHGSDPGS", "test": "Inhibition of human ERG by patch clamp method", "type": "toxicity"}, "[6]": {"test": "Hepatotoxicity in rat primary cells assessed as change in ATP level for 10 days", "type": "toxicity, cell-based, Hepatocyte", "settings": "hepatocytes, 240 h, time 10 day"}, "[7]": {"test": "Hepatotoxicity in rat primary cells assessed as change in urea level for 10 days", "type": "toxicity, cell-based, Hepatocyte", "settings": "hepatocytes, 240 h, time 10 day"}, "[8]": {"target": "Sodium channel protein type 5 subunit alpha (Homo sapiens, UniProt Q14524)", "test": "Inhibition of tonic human Nav1.5", "type": "toxicity"}, "[9]": {"target": "Tumor necrosis factor receptor superfamily member 5 (Homo sapiens) (UniProt P25942)", "sequence (P25942 whole entry)": "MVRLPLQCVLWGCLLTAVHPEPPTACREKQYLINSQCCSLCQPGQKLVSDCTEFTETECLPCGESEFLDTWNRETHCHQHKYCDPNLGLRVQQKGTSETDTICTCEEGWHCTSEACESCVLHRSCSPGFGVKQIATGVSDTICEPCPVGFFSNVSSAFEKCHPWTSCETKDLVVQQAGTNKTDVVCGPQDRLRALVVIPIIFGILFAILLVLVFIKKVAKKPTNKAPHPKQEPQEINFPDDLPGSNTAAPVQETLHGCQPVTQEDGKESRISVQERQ", "test": "Inhibition of CD40 in IL-4/[…] stimulated human PBMC at >10 uM", "type": "cell-based", "settings": "dose microM >10"}, "[10]": {"test": "In vivo inhibition of BTK-dependent B cell activation in C57BL/6 mouse immunized with NP-Ficoll assessed as reduction in anti-NP IgM antibody titer at 0.1 mg/kg, po BID dosed for 10 days", "type": "functional", "parameters": "scale not given: the % may be the effect or the level left", "settings": "time 10 day"}, "[11]": {"test": "In vivo inhibition of BTK-dependent B cell activation in C57BL/6 mouse immunized with NP-Ficoll assessed as reduction in anti-NP IgM antibody titer at 0.03 mg/kg, po BID dosed for 10 days", "type": "functional", "parameters": "scale not given: the % may be the effect or the level left", "settings": "time 10 day"}, "[12]": {"test": "In vivo inhibition of BTK-dependent B cell activation in C57BL/6 mouse immunized with NP-Ficoll assessed as reduction in anti-NP IgM antibody titer", "type": "toxicity, organism-based"}, "Cytochrome P450 2C9": {"target": "Cytochrome P450 2C9 (Homo sapiens, UniProt P11712)", "sequence (P11712 whole entry)": "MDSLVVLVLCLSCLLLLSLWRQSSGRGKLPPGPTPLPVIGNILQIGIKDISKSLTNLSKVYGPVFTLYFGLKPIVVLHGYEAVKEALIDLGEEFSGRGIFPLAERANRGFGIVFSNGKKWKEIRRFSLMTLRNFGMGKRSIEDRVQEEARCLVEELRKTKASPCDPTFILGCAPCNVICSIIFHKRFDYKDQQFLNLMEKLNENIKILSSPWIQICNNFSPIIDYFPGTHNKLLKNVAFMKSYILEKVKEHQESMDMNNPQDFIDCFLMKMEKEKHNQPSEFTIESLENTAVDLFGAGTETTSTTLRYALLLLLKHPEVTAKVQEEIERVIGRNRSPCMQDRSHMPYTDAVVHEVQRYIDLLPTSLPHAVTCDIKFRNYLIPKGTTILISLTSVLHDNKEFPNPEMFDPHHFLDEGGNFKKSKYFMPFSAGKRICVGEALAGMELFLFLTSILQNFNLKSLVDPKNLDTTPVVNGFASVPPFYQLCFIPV", "test": "Inhibition of CYP2C9 in human liver microsomes at 10 to 50 uM", "type": "ADME", "settings": "dose 10-50 µM"}, "Liver": {"system": "Liver", "test": "Drugmetabolism in human liver microsomes assessed as metabolite formation", "type": "ADME, Microsome"}, "[13]": {"test": "Drugmetabolism in mouse hepatocytes assessed as metabolite formation", "type": "ADME, cell-based, Hepatocyte"}, "[14]": {"test": "Drugmetabolism in rat hepatocytes assessed as metabolite formation", "type": "ADME, cell-based, Hepatocyte"}, "[15]": {"test": "Drugmetabolism in human hepatocytes assessed as metabolite formation", "type": "ADME, cell-based, Hepatocyte"}}, "note": "Calls of active or inactive are those of the source. No cut-off for these calls is given here."}
{"smiles": "Cn1cc(Nc2nccc(-c3ccc4c(c3)CN(C3COC3)CC[C@H]4NC(=O)c3cn(C(C)(C)C)nn3)n2)cn1", "note": "[BIIB-091]", "values": [{"measurement": "solubility kinetic", "setting": "[1]", "result": "> 50", "unit": "µg/mL"}, {"measurement": "Kd", "setting": "[2]", "result": "> 3", "unit": "µM"}, {"measurement": "Kd", "setting": "[3]", "result": 0.32, "unit": "µM"}, {"measurement": "Vdss", "setting": "[4]", "result": 1.7, "unit": "L/kg"}, {"measurement": "IC50", "setting": "[5]", "result": "> 25", "unit": "µM"}, {"measurement": "Activity", "setting": "[6]", "result": "Non-Toxic"}, {"measurement": "Activity", "setting": "[7]", "result": "Non-Toxic"}, {"measurement": "IC50", "setting": "[8]", "result": "> 25", "unit": "µM"}, {"measurement": "inhibition", "setting": "[9]", "result": "inactive"}, {"measurement": "Activity", "setting": "[10]", "result": 44, "unit": "%"}, {"measurement": "Activity", "setting": "[11]", "result": 34, "unit": "%"}, {"measurement": "ED50", "setting": "[12]", "result": 1.95, "unit": "mg/kg"}, {"measurement": "inhibition (INH)", "setting": "Cytochrome P450 2C9", "result": "Not Active"}, {"measurement": "Drug metabolism", "setting": "Liver", "result": "Metabolite_Notdetected"}, {"measurement": "Drug metabolism", "setting": "[13]", "result": "Metabolite_Notdetected"}, {"measurement": "Drug metabolism", "setting": "[14]", "result": "Metabolite_Notdetected"}, {"measurement": "Drug metabolism", "setting": "[15]", "result": "Metabolite_Notdetected"}]}
